Experimental data from patent US20200009168A1, “MICROBIOME REGULATORS AND RELATED USES THEREOF” (KALEIDO BIOSCIENCES, INC., priority 2015, published 2020).

Legend:
[1] = test system: Bacteroides caccae ATCC 43185 "BCA.26"; experiment: Sugar-supported growth of commensal bacteria, BCA.26; format: cell-based; details: 0.5% w/v sugar, 37° C., 18-24 hours, anaerobic; OD600 divided by OD600 with 0.5% w/v dextrose
Procedure: (§1) An in vitro assay was performed to assess the ability of various bacterial strains, including commensals of the gastrointestinal tract, to utilize different sugars as growth substrates. This assay was designed to assess the ability of selected natural monosaccharides, disaccharides and synthetic sugars to promote the growth of microbiota associated with a healthy state. Bacterial strains were handled at all steps in an anaerobic chamber (AS-580, Anaerobe Systems) featuring a palladium catalyst. The chamber was initially made anaerobic by purging with an anaerobic gas mixture of 5% hydrogen, 5% carbon dioxide and 90% nitrogen and subsequently maintained in an anaerobic state using this same anaerobic gas mixture. Anaerobicity of the chamber was confirmed daily using Oxoid anaerobic indicator strips that change color in the presence of oxygen. All culture media, assay plates, other reagents and plastic consumables were pre-reduced in the anaerobic chamber for 24-48 hours prior to contact with bacteria. Sugars were prepared at 5% w/v in water, filter-sterilized and added to Costar 3370 assay plates for a final concentration of 0.5% w/v in the assay, with each microbiome regulator assayed in two non-adjacent wells and dextrose and water supplied as positive and negative controls.
(§2) Bacterial isolates were obtained from the American Type Culture Collection (ATCC) and Leibniz Institute DSMZ-German Institute of Microorganisms and Cell Cultures (DSMZ). Cultures of the Bacteroidetes Bacteroides caccae ATCC 43185 “BCA.26”, Bacteroides thetaiotaomicron ATCC 29741 “BTH.8”, Bacteroides cellulosilyticus DSM 14838 “BCE.71”, Parabacteroides distasonis ATCC 8503 “PDI.6” and Prevotella copri DSM 18205 “PCO.72”; the Clostridiales Clostridium scindens ATCC 35704 “CSC.32”, Dorea formicigenerans ATCC 27755 “DFO.36” and Ruminococcus obeum ATCC 29714 “ROB.74”; and the Bifidobacteria Bifidobacterium longum ATCC 15707 “BLO.16” and Bifidobacterium longum DSM 20088 “BLO.83”, were grown anaerobically in Chopped Meat Glucose broth (CMG, Anaerobe Systems), a pre-reduced enriched medium including lean ground beef, enzymatic digest of casein, yeast extract, potassium phosphate, dextrose, cysteine, hemin and Vitamin K1, for 18-48 hours at 37° C. Inocula were prepared by determining the optical density of each culture at […] (OD600) in a Costar 3370 polystyrene 96-well flat-bottom assay plate using a Biotek Synergy 2 plate reader with Gen5 2.0 All-In-One Microplate Reader Software according to manufacturer's protocol, and diluting the cells to OD600 0.01 final in defined and semi-defined media that were prepared without sugars. D. formicigenerans, P. distasonis and B. longum isolates were tested in 900 mg/L sodium chloride, 26 mg/L calcium chloride dihydrate, 20 mg/L magnesium chloride hexahydrate, 10 mg/L manganese chloride tetrahydrate, 40 mg/L ammonium sulfate, 4 mg/L iron sulfate heptahydrate, 1 mg/L cobalt chloride hexahydrate, 300 mg/L potassium phosphate dibasic, 1.5 g/L sodium phosphate dibasic, 5 g/L sodium bicarbonate, 0.125 mg/L biotin, 1 mg/L pyridoxine, […], 75 mg/L histidine, 75 mg/L glycine, 75 mg/L tryptophan, 150 mg/L arginine, 150 mg/L methionine, 150 mg/L threonine, 225 mg/L valine, 225 mg/L isoleucine, 300 mg/L leucine, 400 mg/L cysteine, and 450 mg/L proline (Theriot C M et al. Nat Commun. 2014; 5:3114), supplemented with 0-3.5% (v/v) CMG. B. thetaiotaomicron, B. caccae and B. cellulosyliticus were tested in 100 mM potassium phosphate buffer (pH 7.2), 15 mM sodium chloride, 8.5 mM ammonium sulfate, 4 mM L-cysteine, 1.9 μM hematin, 200 μM L-histidine, 100 μM magnesium chloride, 1.4 μM iron sulfate heptahydrate, 50 μM calcium chloride, 1 μg/mL vitamin K3 and 5 ng/mL vitamin B12 (Martens E C et al. Cell Host & Microbe 2008; 4, 447-457). […]

[2] = test system: Bacteroides cellulosilyticus DSM 14838 "BCE.71"; experiment: Sugar-supported growth of commensal bacteria, BCE.71; format: cell-based; details: 0.5% w/v sugar, 37° C., 18-24 hours, anaerobic; OD600 divided by OD600 with 0.5% w/v dextrose
Procedure: as §1, §2

[3] = test system: Bacteroides thetaiotaomicron ATCC 29741 "BTH.8"; experiment: Sugar-supported growth of commensal bacteria, BTH.8; format: cell-based; details: 0.5% w/v sugar, 37° C., 18-24 hours, anaerobic; OD600 divided by OD600 with 0.5% w/v dextrose
Procedure: as §1, §2

[4] = test system: Parabacteroides distasonis ATCC 8503 "PDI.6"; experiment: Sugar-supported growth of commensal bacteria, PDI.6; format: cell-based; details: 0.5% w/v sugar, 37° C., 18-24 hours, anaerobic; OD600 divided by OD600 with 0.5% w/v dextrose
Procedure: as §1, §2

[5] = test system: Ruminococcus obeum ATCC 29714 "ROB.74"; experiment: Sugar-supported growth of commensal bacteria, ROB.74; format: cell-based; details: 0.5% w/v sugar, 37° C., 18-24 hours, anaerobic; OD600 divided by OD600 with 0.5% w/v dextrose
Procedure: as §1, §2

[6] = test system: Prevotella copri DSM 18205 "PCO.72"; experiment: Sugar-supported growth of commensal bacteria, PCO.72; format: cell-based; details: 0.5% w/v sugar, 37° C., 18-24 hours, anaerobic; OD600 divided by OD600 with 0.5% w/v dextrose
Procedure: as §1, §2

[7] = test system: Clostridium scindens ATCC 35704 "CSC.32"; experiment: Sugar-supported growth of commensal bacteria, CSC.32; format: cell-based; details: 0.5% w/v sugar, 37° C., 18-24 hours, anaerobic; OD600 divided by OD600 with 0.5% w/v dextrose
Procedure: as §1, §2

[8] = test system: Dorea formicigenerans ATCC 27755 "DFO.36"; experiment: Sugar-supported growth of commensal bacteria, DFO.36; format: cell-based; details: 0.5% w/v sugar, 37° C., 18-24 hours, anaerobic; OD600 divided by OD600 with 0.5% w/v dextrose
Procedure: as §1, §2

[9] = test system: Bifidobacterium longum ATCC 15707 "BLO.16"; experiment: Sugar-supported growth of commensal bacteria, BLO.16; format: cell-based; details: 0.5% w/v sugar, 37° C., 18-24 hours, anaerobic; OD600 divided by OD600 with 0.5% w/v dextrose
Procedure: as §1, §2

[10] = test system: Bifidobacterium longum DSM 20088 "BLO.83"; experiment: Sugar-supported growth of commensal bacteria, BLO.83; format: cell-based; details: 0.5% w/v sugar, 37° C., 18-24 hours, anaerobic; OD600 divided by OD600 with 0.5% w/v dextrose
Procedure: as §1
Bacterial isolates were obtained from the American Type Culture Collection (ATCC) and Leibniz Institute DSMZ-German Institute of Microorganisms and Cell Cultures (DSMZ). Cultures of the Bacteroidetes Bacteroides caccae ATCC 43185 “BCA.26”, Bacteroides thetaiotaomicron ATCC 29741 “BTH.8”, Bacteroides cellulosilyticus DSM 14838 “BCE.71”, Parabacteroides distasonis ATCC 8503 “PDI.6” and Prevotella copri DSM 18205 “PCO.72”; the Clostridiales Clostridium scindens ATCC 35704 “CSC.32”, Dorea formicigenerans ATCC 27755 “DFO.36” and Ruminococcus obeum ATCC 29714 “ROB.74”; and the Bifidobacteria Bifidobacterium longum ATCC 15707 “BLO.16” and Bifidobacterium longum DSM 20088 “BLO.83”, were grown anaerobically in Chopped Meat Glucose broth (CMG, Anaerobe Systems), a pre-reduced enriched medium including lean ground beef, enzymatic digest of casein, yeast extract, potassium phosphate, dextrose, cysteine, hemin and Vitamin K1, for 18-48 hours at 37° C. Inocula were prepared by determining the optical density of each culture at […] (OD600) in a Costar 3370 polystyrene 96-well flat-bottom assay plate using a Biotek Synergy 2 plate reader with Gen5 2.0 All-In-One Microplate Reader Software according to manufacturer's protocol, and diluting the cells to OD600 0.01 final in defined and semi-defined media that were prepared without sugars. […]

[11] = test system: panel of 10 commensals; experiment: Sugar-supported growth, whole panel of 10 commensals; format: cell-based; details: 0.5% w/v sugar, summary in words
Procedure: as §1, §2

[12] = studies by McCance et al (J Biol Chem (1930) 24:795-804); cited from earlier work
[13] = test system: colonic regulatory T cells; details: in mice or in vitro; cited from earlier work

| Structure (SMILES) | Average Normalized Growth (NGV), BCA.26 [1] | Average Normalized Growth (NGV), BCE.71 [2] | Average Normalized Growth (NGV), BTH.8 [3] | Average Normalized Growth (NGV), PDI.6 [4] | Average Normalized Growth (NGV), ROB.74 [5] | Average Normalized Growth (NGV), PCO.72 [6] | Average Normalized Growth (NGV), CSC.32 [7] | Average Normalized Growth (NGV), DFO.36 [8] | Average Normalized Growth (NGV), BLO.16 [9] | Average Normalized Growth (NGV), BLO.83 [10] | taxa or strains of the commensal panel whose growth was supported [11] | absorption by the gastrointestinal tract [12] | expression of Foxp3, a T cell regulatory factor [13] | expression of IL-10, an anti-inflammatory cytokine [13] |
| --- | --- | --- | --- | --- | --- | --- | --- | --- | --- | --- | --- | --- | --- | --- |
| O=C(CO)[C@@H](O)[C@H](O)[C@H](O)CO [D-fructose] | ++ (0.6-1) | +++ (>1) | ++ (0.6-1) | +++ (>1) | ++ (0.6-1) | ++ (0.6-1) | +++ (>1) | +++ (>1) | +++ (>1) | +++ (>1) | supported some commensals from the taxa Bacteroidetes, Firmicutes, including Lachnospiraceae, and Bifidobacteria | – | – | – |
| O=C[C@H](O)[C@@H](O)[C@@H](O)[C@H](O)CO [D-galactose] | ++ (0.6-1) | +++ (>1) | +++ (>1) | +++ (>1) | + (0.2-0.6) | +++ (>1) | ++ (0.6-1) | + (0.2-0.6) | − (<0.2) | +++ (>1) | supported some commensals from the taxa Bacteroidetes, Firmicutes, including Lachnospiraceae, and Bifidobacteria | readily absorbed | – | – |
| C[C@H](O)[C@H](O)[C@@H](O)[C@@H](O)C=O [L-rhamnose] | − (<0.2) | – | + (0.2-0.6) | − (<0.2) | – | + (0.2-0.6) | − (<0.2) | − (<0.2) | − (<0.2) | – | – | are not | – | – |
| O=C[C@@H](O)[C@H](O)[C@H](O)CO [arabinose] | – | – | – | – | – | – | – | – | – | – | – | are not | – | – |
| OC[C@H]1O[C@@H](O[C@H]2[C@H](O)[C@@H](O)C(O)O[C@@H]2CO)[C@H](O)[C@@H](O)[C@H]1O (stereo partly drawn) [lactose] | +++ (>1) | +++ (>1) | +++ (>1) | +++ (>1) | ++ (0.6-1) | +++ (>1) | +++ (>1) | +++ (>1) | ++ (0.6-1) | +++ (>1) | supported some commensals from the taxa Bacteroidetes, Firmicutes, including Lachnospiraceae, and Bifidobacteria | – | – | – |
| CCC(=O)O [propionate, propionic acid] | – | – | – | – | – | – | – | – | – | – | – | – | increased | increased |
